The values below are quoted from earlier work in PMC3618964 (Journal of medicinal chemistry, 2010).

In this data set the target is SaDHFR. The settings on record: read-out: Ki value (SaDHFR).

On to `CCc1nc(N)nc(N)c1C#CCc1cc(OC)ccc1OC` [Compound 9], for which the inhibition constant (Ki) (commonly the equilibrium dissociation constant of an inhibitor or competing ligand from its target) was 9.9 nM.
